Measured values taken from patent US8785452B2, “Anti-infective compounds” (priority 2008, dated 2014).
Where two headings read alike, the source gives them in different places.

What was measured:
[1] = test system: Raw264.7 cells; assay: Cell number (CellNb) from image analysis of the phenotypic cell-based assay
[2] = test system: Raw264.7 cells; conditions: mouse
[3] = test system: M. tuberculosis H37Rv-GFP; assay: microbe, parasite or virus in culture; type: cell-based, Mycobacterium tuberculosis; conditions: Mycobacterium tuberculosis, H37RV, Macrophage
[4] = confirmation, 20 uM, read-out: QIM Confirm % Inhibition 20 uM
[5] = primary screen, 20 μM, read-out: Primary QIM % Inhibition
[6] = read-out: Primary QIM % Inhibition
[7] = read-out: QIM Confirm % Inhibition 20 uM

## COc1c(O)cc(/C=N/NC(=O)c2ccncc2)cc1Br [IPK 000 078 30]
[1]; primary screen, 20 μM
  Primary QIM CellNb: 388.3
[2]; 5 days, 20 μM
  Primary QIM CellNb: 97.0
[3]; [4]
  inhibition at 20 µM: 105%
[3]; [5]
  inhibition at 20 µM: 108%

## COc1ccccc1/C=N/NC(=O)c1ccncc1 [IPK 000 043 01]
[1]; primary screen, 20 μM
  Primary QIM CellNb: 287.8
[2]; 5 days, 20 μM
  Primary QIM CellNb: 103.6
[3]; [4]
  inhibition at 20 µM: 103%
[3]; [5]
  inhibition at 20 µM: 86.6%

## O=C(N/N=C\c1cc2c(s1)CCCCC2)c1ccncc1 [IPK 000 102 07]
[1]; confirmation, 20 uM
  QIM Confirm CellNb 20 uM: 124.8
[1]; primary screen, 20 μM
  Primary QIM CellNb: 116.0
[2]; 5 days, 20 uM
  QIM Confirm CellNb 20 uM: 79.6
[2]; 5 days, 20 μM
  Primary QIM CellNb: 99.5
[3]; [4]
  inhibition at 20 µM: 84.7%
[3]; [5]
  inhibition at 20 µM: 94.7%

## O=C(N/N=C/c1cccs1)c1ccncc1 [IPK 000 043 33]
[1]; primary screen, 20 μM
  Primary QIM CellNb: 270.8
[2]; 5 days, 20 μM
  Primary QIM CellNb: 94.5
[3]; [4]
  inhibition at 20 µM: 104%
[3]; [5]
  inhibition at 20 µM: 83%

## N#Cc1cc(Br)c([N+](=O)[O-])cc1C#N [IPK 000 042 72]
[1]; confirmation, 2 uM
  QIM Confirm CellNb 2 uM: 96.1
[1]; primary screen, 20 μM
  Primary QIM CellNb: 152.0
[2]; 5 days, 2 uM
  QIM Confirm CellNb 2 uM: 82.5
[2]; 5 days, 20 μM
  Primary QIM CellNb: −1.9
[3]; [4]
  inhibition at 20 µM: 57.6%
[3]; [5]
  inhibition at 20 µM: 11.9%

## CCOc1ccc2ccccc2c1/C=N/NC(=O)c1ccncc1 [IPK 000 043 62]
[1]; primary screen, 20 μM
  Primary QIM CellNb: 393.8
[2]; 5 days, 20 μM
  Primary QIM CellNb: 98.8
[3]; [4]
  inhibition at 20 µM: 104%
[3]; [5]
  inhibition at 20 µM: 98.2%

## O=[N+]([O-])c1ccc(O)c(C2NN=C(c3ccccc3)S2)c1 (stereo not shown) [IPK 000 114 01]
[1]; primary screen, 20 μM
  Primary QIM CellNb: 163.5
[2]; 5 days, 20 μM
  Primary QIM CellNb: 7.3
[3]; [4]
  inhibition at 20 µM: -1.5%
[3]; [5]
  inhibition at 20 µM: 3.2%

## CCc1ccc(/C=N/NC(=O)c2ccncc2)cc1 [IPK 000 043 31]
[1]; primary screen, 20 μM
  Primary QIM CellNb: 334.0
[2]; 5 days, 20 μM
  Primary QIM CellNb: 101.5
[3]; [4]
  inhibition at 20 µM: 100%
[3]; [5]
  inhibition at 20 µM: 94.6%

## N=C1S/C(=C/c2ccc([N+](=O)[O-])cc2)C(=O)N1c1nccs1 [IPK 000 094 38]
[1]; primary screen, 20 μM
  Primary QIM CellNb: 126.3
[2]; 5 days, 20 μM
  Primary QIM CellNb: 13.6
[3]; [4]
  inhibition at 20 µM: 6%
[3]; [5]
  inhibition at 20 µM: 46%

## CC1=C(Nc2ccc(S(=O)(=O)Nc3nc(C)cc(C)n3)cc2)Sc2ccccc2N1 [IPK 000 112 67]
[1]; primary screen, 20 μM
  Primary QIM CellNb: 250.8
[2]; 5 days, 20 μM
  Primary QIM CellNb: 27.6
[3]; [4]
  inhibition at 20 µM: 32.6%
[3]; [5]
  inhibition at 20 µM: -36.5%

## COc1ccc(OC)c(/C=N/NC(=O)c2ccncc2)c1 [IPK 000 042 93]
[1]; primary screen, 20 μM
  Primary QIM CellNb: 321.8
[2]; 5 days, 20 μM
  Primary QIM CellNb: 105.1
[3]; [4]
  inhibition at 20 µM: 106%
[3]; [5]
  inhibition at 20 µM: 109%

## CCOc1ccc(/C(C)=N/NC(N)=S)cc1 [IPK 000 080 37]
[1]
  Primary QIM CellNb: 110.8
[2]
  Primary QIM CellNb: 62.1
[3]; [6]
  inhibition at 20 µM: -44%
[3]; [7]
  inhibition at 20 µM: 36%

## O=C(Nc1ccc(Cl)cc1[N+](=O)[O-])c1ccc([N+](=O)[O-])cc1Cl [IPK 000 049 00]
[1]
  Primary QIM CellNb: 108.0
[2]
  Primary QIM CellNb: 72.2
[3]; [6]
  inhibition at 20 µM: 32.1%
[3]; [7]
  inhibition at 20 µM: 74.2%

## O=C(N/N=C/c1ccc(O)cc1O)c1ccncc1 [IPK 000 043 28]
[1]; primary screen, 20 μM
  Primary QIM CellNb: 326.5
[2]; 5 days, 20 μM
  Primary QIM CellNb: 87.1
[3]; [4]
  inhibition at 20 µM: 95.9%
[3]; [5]
  inhibition at 20 µM: 94.9%

## Cn1cc(/C=N/NC(=O)c2cccc(F)c2)c2ccccc21 [IPK 000 104 11]
[1]; primary screen, 20 μM
  Primary QIM CellNb: 203.8
[2]; 5 days, 20 μM
  Primary QIM CellNb: 19.9
[3]; [4]
  inhibition at 20 µM: 83.3%
[3]; [5]
  inhibition at 20 µM: 89.7%

## O=C(N/N=C/c1ccc[nH]1)c1ccccn1 [IPK 000 058 21]
[1]; primary screen, 20 μM
  Primary QIM CellNb: 452.5
[2]; 5 days, 20 μM
  Primary QIM CellNb: 75.7
[3]; [4]
  inhibition at 20 µM: 56%
[3]; [5]
  inhibition at 20 µM: 90.9%

## O=C(N/N=C/c1cc([N+](=O)[O-])ccc1O)c1ccncc1 [IPK 000 042 98]
[1]; primary screen, 20 μM
  Primary QIM CellNb: 350.0
[2]; 5 days, 20 μM
  Primary QIM CellNb: 95.3
[3]; [4]
  inhibition at 20 µM: 105%
[3]; [5]
  inhibition at 20 µM: 102%

## COc1ccc(/C=N/NC(=O)c2ccncc2)cc1OC [IPK 000 042 95]
[1]; primary screen, 20 μM
  Primary QIM CellNb: 143.5
[2]; 5 days, 20 μM
  Primary QIM CellNb: 106.0
[3]; [4]
  inhibition at 20 µM: 98.8%
[3]; [5]
  inhibition at 20 µM: 64.7%

## C/C(=N\NC(N)=S)c1ccccc1O [IPK 000 080 38]
[1]; primary screen, 20 μM
  Primary QIM CellNb: 307.5
[2]; 5 days, 20 μM
  Primary QIM CellNb: 32.1
[3]; [4]
  inhibition at 20 µM: 3.4%
[3]; [5]
  inhibition at 20 µM: 21%

## O=C(N/N=C/c1ccc(Br)cc1)c1ccncc1 [IPK 000 041 51]
[1]; primary screen, 20 μM
  Primary QIM CellNb: 351.3
[2]; 5 days, 20 μM
  Primary QIM CellNb: 102.9
[3]; [4]
  inhibition at 20 µM: 94%
[3]; [5]
  inhibition at 20 µM: 89%

## CCOc1ccc(/C=N/NC(=O)c2ccncc2)cc1 [IPK 000 041 49]
[1]; primary screen, 20 μM
  Primary QIM CellNb: 336.5
[2]; 5 days, 20 μM
  Primary QIM CellNb: 102.3
[3]; [4]
  inhibition at 20 µM: 94.5%
[3]; [5]
  inhibition at 20 µM: 83.8%

## O=C(N/N=C/C=C/c1ccc([N+](=O)[O-])cc1)c1ccncc1 [IPK 000 043 30]
[1]; primary screen, 20 μM
  Primary QIM CellNb: 305.0
[2]; 5 days, 20 μM
  Primary QIM CellNb: 100.8
[3]; [4]
  inhibition at 20 µM: 102%
[3]; [5]
  inhibition at 20 µM: 107%

## Cc1cccc(NC(=O)c2c(NC(=O)c3ccccc3Cl)sc3c2CCC3)c1 [IPK 000 073 70]
[1]; primary screen, 20 μM
  Primary QIM CellNb: 234.0
[2]; 5 days, 20 μM
  Primary QIM CellNb: 56.7
[3]; [4]
  inhibition at 20 µM: 103%
[3]; [5]
  inhibition at 20 µM: 88.6%

## O=C(N/N=C/c1cc(Br)cc([N+](=O)[O-])c1O)c1ccncc1 [IPK 000 080 81]
[1]; primary screen, 20 μM
  Primary QIM CellNb: 363.3
[2]; 5 days, 20 μM
  Primary QIM CellNb: 104.9
[3]; [4]
  inhibition at 20 µM: 99.5%
[3]; [5]
  inhibition at 20 µM: 94.7%

## C=CCn1c(Cc2ccccc2)nc2c(cnn2-c2ccccc2)c1=O [IPK 000 073 11]
[1]; primary screen, 20 μM
  Primary QIM CellNb: 147.8
[2]; 5 days, 0.2 uM
  QIM Confirm CellNb 0.2 uM: 67.2
[2]; 5 days, 20 μM
  Primary QIM CellNb: −10.5
[3]; [4]
  inhibition at 20 µM: 56.1%
[3]; [5]
  inhibition at 20 µM: 49.1%

## Cc1cccn2c(=O)c(C=O)c(Nc3cccc(Cl)c3)nc12 [IPK 000 042 07]
[1]; primary screen, 20 μM
  Primary QIM CellNb: 198.0
[2]; 5 days, 20 μM
  Primary QIM CellNb: 104.0
[3]; [4]
  inhibition at 20 µM: 107%
[3]; [5]
  inhibition at 20 µM: 34.7%
